Assays:
PDGFRα = biological target: T1, PDGFRα (Homo sapiens, UniProt P16234); test: HTRF biochemical assay, PDGFRα; details: Table 4, read-out: PDFGRα Biochemical IC50 avg
T1 construct: purchased Millipore 14-467 (lot 26321_ACTI)
Description: (§1) Exemplary compounds were tested for ability to inhibit the phosphorylation of a peptide substrate by the tyrosine kinase wt KIT, PDGFRα, or CSF-1R. Assay procedures and results are described below.
(§2) Enzyme, substrate, and cofactors (ATP and Mn^2+) are combined in a well of a microtiter plate and incubated for 3 hours at 25° C. At the end of the incubation, the reaction is quenched by the addition of an EDTA-containing buffer.
(§3) The substrate used in the CSF-1R and PDGFRα assay is FAM-[…]-CONH2 (FAM is carboxyfluorescein). Peptide should be >95% purity. The substrate for the KIT assay is FAM-[…]-NH2.
(§4) • 1. To a well of a 384-wellplate add 5 μL of 2× enzyme buffer (or control). • 2. Add 100 nL of 100× compound. Enzyme and compound may be pre-incubated at this time if desired. • 3. Add 5 μL of 2× substrate buffer. • 4. Incubate plate at 25° C. for 3 hours. • 5. Add 10 uL of anti-phosphotyrosine antibody buffer. • 6. Read plate in BioTek Synergy Reader. Reaction Conditions for wtKIT Assay

[1] = tested on: KIT phosphorylation in M-07e cells; test: Cell-based KIT phosphorylation in M-07e cells by pKIT ELISA; set-up: species or system human; details: SCF stimulation
Description: Exemplary compounds were tested for ability to inhibit KIT phosphorylation using M-07e cells as monitored by pKIT ELISA. M-07e cells are also represented as M-07E, M-07e, M07-e, M07e, Mo7e, MO7e, M07E and MO7E. Assay procedures and results are described below.
Part I—Procedures for Determining KIT Inhibition inM-07e Cells Using pKTT ELISA Reagents and consumables: • M-07e cells: Initially obtained from Accegen, cat #ABC-TC1313 • p-cKIT Capture ELISA antibody: anti-Human Phospho-CD117/c-kit, R&D cat #DYC3527-5 • Anti-pY-HIRP antibody: R&D cat #DYC3527-5 • 25× wash buffer: Quantikine ELISA Wash Buffer 1, R&D cat #WA126 • PBS: R&D cat #DY006 • 96 well ELISA plates: Clear Polystyrene Microplates, R&D Cat #DY990 • 96 well Tissue culture plates: Corning® 96 Well TC-Treated Microplates, cat #CLS3894 • RPMI medium: ATCC® RPMI-1640 Medium, Cat #30-2001 • FBS: Fetal Bovine Serum, certified, United States Gibco, Thermo-Fisher 16000044 • GM-CSF: Recombinant Human GM-CSF Protein, R&D cat #215-GM • SCF: Recombinant Human SCF Protein, R&D cat #255-SC
• 1. Prepare cells: • a. Culture M-07e cells in RPMI medium+20% serum+GM-CSF+penstrep • To make 50 mL of growth medium • i. 40 mL RPMI media • ii. 10 mL FBS • iii. 10 uL of GM-CSF (100 ug/mL stock) • iv. 0.5 mL pen strep (100×) • b. Harvest cells • c. Re-suspend cells in 100% RPMI media (without serum) to final concentration of 1 million cells/mL • d. Transfer 100 uL of cell solution to 11 columns of a 96 well flat bottom cell culture plate • e. Incubate cells over night at 37 C • 2. Prepare ELISA Plates: • a. Dilute capture antibody to concentration 4 ug/mL in PBS • b. Coat 96 well microplates with 100 uL of capture antibody • c. Seal plates and incubate at RT overnight • d. Wash plates with 300 uL of wash buffer • e. Repeat wash • f. Treat plates with 300 uL of blocking buffer at RT for 1 hour • 3. Addition of compounds: • a. Prepare compound dilutions in RPMI media • i. Top test concentration is 1 uM • ii. Serially dilute compounds 3× for a total of 8 concentrations • b. Add 10 uL of 10× compound dilutions to cells • i. No compounds added in column 11 (for controls) • c. Incubate cells with compounds for 2 hours at 37 C • d. Stimulate cells with SCF for 5 min at concentration of 100 ng/mL (final) • i. In column 11 stimulate top 4 wells. Leave bottom 4 wells unstimulated • e. Remove cell culture media with multichannel pipet • f. Add 110 uL of Lysis buffer to all wells • g. Incubate plates at RT for 30 min while shaking • 4. Transfer 100 uL of cell lysis to each prepared Elisa plate • 5. Add 100 uL of the standard pc-KIT dilutions to the standard wells in column 12 • a. Top concentration=2000 pg/mL • b. 2× dilutions • 6. Incubate ELISA plate with cell lysate for 2 hours at RT • 7. Wash Plate with wash buffer (wash 1) • 8. Repeat wash (wash 2) • 9. […] Add 100 uL of diluted anti-pY-HRP (1/1000 dilution in detection antibody dilution buffer) and incubate 2 hours at RT • 11. Wash plate with wash buffer (wash 1) • 12. Repeat wash (wash 2) • 13. Repeat wash (wash 3) • 14. Add 100 uL of substrate solution to each well • 15. Incubate plates 20 min • Note: Plate development is indicated by aqua color • 16. Add 50 uL of stop solution to each well • 17. Determine optical density on Bitek Synergy Neo2: • a. Make new experiment
Select absorbance 1 set to 450 nm

Kinetic solubility assay = format: physicochemical; details: kinetic solubility, 50 mM PB (pH 7.4), shaken 24 hours at RT
In short: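 Test compounds from 10 mM DMSO stock were diluted in 50 mM phosphate buffer, pH 7.4, and shaken for 24 h at RT. After PTFE filtration and centrifugation, filtrate concentration was quantified by UPLC-UV/HPLC-UV against a standard curve.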

CSF-1R = biological target: T2, CSF-1R (Homo sapiens, UniProt P07333); test: HTRF biochemical assay, CSF-1R; details: Table 4
T2 construct: purchased Invitrogen PV3249 (lot 662393N)
Description: as §1, §2, §3, §4

wtKIT = biological target: T3, wtKIT (Homo sapiens, UniProt P10721); test: HTRF biochemical assay, wtKIT (phosphorylation of a peptide substrate); details: Table 4
T3 construct: 1888289AM in the reaction mixtures
In short: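 wtKIT (5.0 nM) phosphorylating 1 µM FAM-labelled peptide with 400 µM ATP and 10 mM MnCl2 in 100 mM HEPES pH 7.5, 1% DMSO, 3 h at 25 °C. EDTA quench; phosphopeptide detected with anti-phosphotyrosine antibody by HTRF. Enzyme titrated for 10-20% substrate conversion.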

T3 sequence (P10721 26-976): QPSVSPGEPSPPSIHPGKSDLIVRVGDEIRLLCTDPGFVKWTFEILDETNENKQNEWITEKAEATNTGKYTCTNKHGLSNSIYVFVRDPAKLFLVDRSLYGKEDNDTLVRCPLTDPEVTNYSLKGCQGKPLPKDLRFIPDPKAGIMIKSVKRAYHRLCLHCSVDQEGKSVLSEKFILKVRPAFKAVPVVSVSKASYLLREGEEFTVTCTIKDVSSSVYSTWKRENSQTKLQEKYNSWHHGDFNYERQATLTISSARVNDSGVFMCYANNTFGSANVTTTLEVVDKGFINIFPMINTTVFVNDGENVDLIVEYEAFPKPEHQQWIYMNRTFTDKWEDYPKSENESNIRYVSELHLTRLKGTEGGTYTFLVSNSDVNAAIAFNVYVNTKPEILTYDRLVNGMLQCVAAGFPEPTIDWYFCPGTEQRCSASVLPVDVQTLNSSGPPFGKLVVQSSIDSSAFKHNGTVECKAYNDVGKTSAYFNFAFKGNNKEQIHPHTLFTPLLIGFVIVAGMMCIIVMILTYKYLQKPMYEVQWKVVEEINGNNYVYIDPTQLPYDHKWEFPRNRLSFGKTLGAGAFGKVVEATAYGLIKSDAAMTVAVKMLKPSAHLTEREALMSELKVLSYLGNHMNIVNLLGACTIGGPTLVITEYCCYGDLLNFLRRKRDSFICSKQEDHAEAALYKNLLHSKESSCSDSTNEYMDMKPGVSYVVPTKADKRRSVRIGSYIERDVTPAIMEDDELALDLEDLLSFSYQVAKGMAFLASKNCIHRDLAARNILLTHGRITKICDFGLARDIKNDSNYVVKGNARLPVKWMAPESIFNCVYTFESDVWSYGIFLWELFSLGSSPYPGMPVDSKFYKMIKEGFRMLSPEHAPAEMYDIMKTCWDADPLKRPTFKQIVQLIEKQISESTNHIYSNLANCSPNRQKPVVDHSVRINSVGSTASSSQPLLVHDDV
T1 sequence (P16234 24-1089): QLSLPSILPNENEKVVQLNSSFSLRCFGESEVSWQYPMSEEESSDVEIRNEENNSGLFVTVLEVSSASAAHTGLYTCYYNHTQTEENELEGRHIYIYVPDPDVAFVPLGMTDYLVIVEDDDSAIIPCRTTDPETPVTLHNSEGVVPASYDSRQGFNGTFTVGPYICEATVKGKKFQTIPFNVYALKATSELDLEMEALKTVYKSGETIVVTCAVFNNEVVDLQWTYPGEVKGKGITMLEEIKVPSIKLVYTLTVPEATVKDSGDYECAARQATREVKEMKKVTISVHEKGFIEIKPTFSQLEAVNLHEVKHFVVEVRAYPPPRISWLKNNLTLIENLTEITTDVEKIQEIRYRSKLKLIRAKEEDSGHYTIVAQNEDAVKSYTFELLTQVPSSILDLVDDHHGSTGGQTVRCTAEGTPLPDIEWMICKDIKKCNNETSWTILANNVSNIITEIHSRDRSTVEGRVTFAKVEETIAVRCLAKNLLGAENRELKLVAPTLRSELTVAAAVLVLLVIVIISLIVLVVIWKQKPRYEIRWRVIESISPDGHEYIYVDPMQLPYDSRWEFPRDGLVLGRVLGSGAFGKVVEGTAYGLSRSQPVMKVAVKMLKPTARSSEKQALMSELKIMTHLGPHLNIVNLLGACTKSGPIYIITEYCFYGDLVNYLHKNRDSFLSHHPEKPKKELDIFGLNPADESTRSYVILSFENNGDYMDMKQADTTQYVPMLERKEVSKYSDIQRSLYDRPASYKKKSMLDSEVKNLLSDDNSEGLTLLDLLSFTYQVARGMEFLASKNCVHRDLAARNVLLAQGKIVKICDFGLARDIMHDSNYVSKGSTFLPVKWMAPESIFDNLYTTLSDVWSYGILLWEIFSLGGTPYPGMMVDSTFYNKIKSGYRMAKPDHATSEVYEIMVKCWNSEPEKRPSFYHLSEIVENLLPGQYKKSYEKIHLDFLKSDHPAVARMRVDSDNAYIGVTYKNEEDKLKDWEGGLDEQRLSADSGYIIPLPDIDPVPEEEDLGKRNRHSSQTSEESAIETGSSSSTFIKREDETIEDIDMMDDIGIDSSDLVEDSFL
T2 sequence (P07333 20-972): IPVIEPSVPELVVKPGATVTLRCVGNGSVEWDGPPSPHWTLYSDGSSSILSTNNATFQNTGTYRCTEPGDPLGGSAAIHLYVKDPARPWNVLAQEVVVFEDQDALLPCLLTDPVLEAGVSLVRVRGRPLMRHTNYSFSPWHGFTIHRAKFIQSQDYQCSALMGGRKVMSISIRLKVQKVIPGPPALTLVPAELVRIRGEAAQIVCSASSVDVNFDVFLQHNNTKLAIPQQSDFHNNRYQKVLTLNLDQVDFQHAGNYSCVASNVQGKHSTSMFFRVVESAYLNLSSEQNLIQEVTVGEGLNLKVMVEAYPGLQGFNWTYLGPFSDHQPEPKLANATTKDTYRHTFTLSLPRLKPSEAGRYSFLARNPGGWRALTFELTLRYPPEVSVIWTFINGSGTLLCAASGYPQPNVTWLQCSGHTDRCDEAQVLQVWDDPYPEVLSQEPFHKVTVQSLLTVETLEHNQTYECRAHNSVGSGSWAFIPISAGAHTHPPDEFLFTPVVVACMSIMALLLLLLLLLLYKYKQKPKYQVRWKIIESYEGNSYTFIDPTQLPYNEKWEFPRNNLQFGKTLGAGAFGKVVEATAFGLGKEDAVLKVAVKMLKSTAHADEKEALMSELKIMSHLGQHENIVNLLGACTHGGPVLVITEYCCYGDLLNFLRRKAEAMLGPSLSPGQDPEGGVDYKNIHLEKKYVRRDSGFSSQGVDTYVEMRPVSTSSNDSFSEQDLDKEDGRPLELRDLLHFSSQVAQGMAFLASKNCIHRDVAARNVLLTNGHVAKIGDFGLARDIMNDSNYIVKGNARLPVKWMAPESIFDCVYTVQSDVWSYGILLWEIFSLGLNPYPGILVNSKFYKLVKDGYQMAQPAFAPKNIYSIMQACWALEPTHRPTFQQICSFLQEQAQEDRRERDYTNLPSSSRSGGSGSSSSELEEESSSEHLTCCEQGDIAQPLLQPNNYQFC

SMILES	IC50 (PDGFRα) [nM]	IC50 [1] [nM]	Solubility (μM) (Kinetic solubility assay)	IC50 (CSF-1R) [nM]	IC50 (wtKIT) [nM]
Cc1ccc(-c2noc(C(F)C3CC3)n2)cc1NC(=O)c1cnc2ccccn12 (racemic) [Compound I-77]	5000 to 30000	≤ 50	**** (a solubility less than or equal to 2 μM)	50 to 500	≤ 50
Cc1ccc(-c2noc(C(O)C3CC3)n2)cc1NC(=O)c1cnc2ccccn12 (racemic) [Compound I-78]	500 to 5000	≤ 50	**** (a solubility less than or equal to 2 μM)	50 to 500	≤ 50
Cc1ccc(-c2noc(C(O)C3CCC3)n2)cc1NC(=O)c1cnc2ccccn12 (racemic) [Compound I-79]	50 to 500	≤ 50	**** (a solubility less than or equal to 2 μM)	50 to 500	≤ 50
Cc1ccc(-c2noc(CC(O)C(F)F)n2)cc1NC(=O)c1cnn2ccccc12 (single isomer, unassigned) [Compound I-75]	500 to 5000	≤ 50	**** (a solubility less than or equal to 2 μM)	50 to 500	≤ 50
Cc1ccc(-c2noc(C[C@H](C)O)n2)cc1NC(=O)c1cnn2ccccc12 [Compound I-80]	5000 to 30000	≤ 50	* (a solubility greater than 50 μM)	50 to 500	50 to 500
Cc1ccc(-c2noc(C[C@@H](C)O)n2)cc1NC(=O)c1cnn2ccccc12 [Compound I-81]	5000 to 30000	≤ 50	** (a solubility greater than 10 μM and less than or equal to 50 μM)	500 to 5000	50 to 500
Cc1ccc(-c2noc(C3CC3F)n2)cc1NC(=O)c1cnc2cc(COC3CC(O)C3)ccn12 (stereo not drawn) [Compound I-85]	500 to 5000	≤ 50	**** (a solubility less than or equal to 2 μM)	≤ 50	≤ 50
Cc1ccc(-c2noc([C@H]3C[C@@H]3F)n2)cc1NC(=O)c1cnc2ccc(OC(C)C)cn12 [Compound I-86]	50 to 500	≤ 50	**** (a solubility less than or equal to 2 μM)	≤ 50	≤ 50
CCOc1ccc2ncc(C(=O)Nc3cc(-c4noc([C@H]5C[C@@H]5F)n4)ccc3C)n2c1 [Compound I-92]	50 to 500	≤ 50	**** (a solubility less than or equal to 2 μM)	≤ 50	≤ 50
COc1ccn2c(C(=O)Nc3cc(-c4noc(C[C@@H](C)O)n4)ccc3C)cnc2c1 [Compound I-95]	500 to 5000	≤ 50	**** (a solubility less than or equal to 2 μM)	50 to 500	≤ 50
Cc1ccc(-c2noc([C@H]3C[C@@H]3F)n2)cc1NC(=O)c1cnn2cc(F)ccc12 [Compound I-101]	5000 to 30000	50 to 500	**** (a solubility less than or equal to 2 μM)	50 to 500	≤ 50
Cc1ccc(-c2noc([C@H]3C[C@@H]3F)n2)cc1NC(=O)c1cnc2ccc(Cl)cn12 [Compound I-102]	500 to 5000	≤ 50	**** (a solubility less than or equal to 2 μM)	≤ 50	≤ 50
Cc1ccc(-c2noc([C@H]3C[C@@H]3F)n2)cc1NC(=O)c1cnc2cc(F)ccn12 [Compound I-103]	500 to 5000	50 to 500	**** (a solubility less than or equal to 2 μM)	≤ 50	≤ 50
Cc1ccc(-c2noc(C3CC(F)(F)C3)n2)cc1NC(=O)c1cnc2cc(CO)ccn12 [Compound I-105]	500 to 5000	50 to 500	**** (a solubility less than or equal to 2 μM)	≤ 50	≤ 50
Cc1ccc(-c2noc([C@H]3C[C@@H]3F)n2)cc1NC(=O)c1cnc2ccc(C3CNC3)cn12 [Compound I-106]	50 to 500	50 to 500	* (a solubility greater than 50 μM)	≤ 50	≤ 50
Cc1ccc2ncc(C(=O)Nc3cc(-c4noc([C@H]5C[C@@H]5F)n4)ccc3C)n2c1 [Compound I-108]	50 to 500	≤ 50	**** (a solubility less than or equal to 2 μM)	≤ 50	≤ 50
Cc1ccc(-c2noc([C@@H]3CC(F)(F)CN3)n2)cc1NC(=O)c1cnc2cc(COCCO)ccn12 [Compound I-111]	50 to 500	≤ 50	* (a solubility greater than 50 μM)	50 to 500	≤ 50
COC(=O)N1CC(c2nc(-c3ccc(C)c(NC(=O)c4cnc5cc(CO)ccn45)c3)no2)C1 [Compound I-120]	5000 to 30000	≤ 50	**** (a solubility less than or equal to 2 μM)	5000 to 30000	50 to 500
